What was measured:
[1] = Bioavailability after intraduodenal administration with permeation enhancers in rats; type: in vivo, rat; conditions: single intraduodenal administration with permeation enhancers (NaCDC and PG), n = 4 per group
Experimental: Male Sprague Dawley rats (Charles River, Shrewsbury, MA, USA) weighing 250–275 g were housed with ad libitum access to standard chow and water. Test peptides were administered via either an intravenous or a duodenal catheter (4 rats per group) after overnight fasting, and food was returned following 4 h blood collection. Blood was collected via a jugular vein catheter at − 5, 15 and 30 min and 1, 2, 4, 8 and 24 h after intravenous dosing, or for intraduodenal groups at 15 min predose and 0.5, 1, 2, 4, 8, 24 and 48 h postdose. Blood was collected in K2EDTA tubes and kept on wet ice prior to 10 min centrifugation (3000 × g) at 5 °C ± 3 °C. Plasma samples were stored at − 70 °C until analysis.
Fifty or seventy μL aliquots of K2EDTA plasma samples were precipitated with 75% acetonitrile (Sigma-Aldrich) in water (J.T. Baker, Phillipsburg, NJ, USA) (v/v) and centrifuged at 2000 × g. The supernatant was dried under nitrogen at 60 °C, then cooled. Samples were reconstituted in 20% acetonitrile in water (v/v). […] Gradient separation was performed with water and 0.2% formic acid (Thermo Fisher Scientific, Waltham, MA, USA) as mobile phase A, and acetonitrile with 0.2% formic acid as mobile phase B. The method was qualified for the quantification range of 1–1000 ng/mL with accuracy and precision of ± 20%, except for at the lower limit of quantification when the accuracy and precision were ± 25%. Plasma concentrations were subject to noncompartmental analysis consistent with the route of administration using Phoenix WinNonlin (version 7.0, Certara, Princeton, NJ, USA).

monkey plasma protein = assay: EScalate equilibrium shift assay, monkey plasma; type: in vitro ADME; conditions: EScalate equilibrium shift assay
Experimental: [The procedure below names another species; the source lists this species under the same test.] (§1) Binding of peptides to human plasma proteins was determined by the EScalate equilibrium shift assay (Sovicell, Leipzig, Germany), using five dilutions of plasma in phosphate buffered saline and an assumed binding protein concentration of 600 µM. Samples were incubated for 1 h at room temperature then centrifuged to remove the HSA-coated beads. Supernatant samples were analyzed using HPLC (3 µm Phenomenex Aeris Widepore XB-C18 stationary phase) coupled to an electrospray ionization quadrupole time-of-flight mass spectrometer in high resolution accurate mass mode (Agilent, Santa Clara, CA, USA). Unbound fractions were calculated from the concentration-dependent shift in binding equilibrium according to fu=1/1+P/KDPlasma , where P is the concentration of the binding protein in plasma and KDPlasma is the dissociation constant of the compound from plasma proteins in solution.

[2] = oral semaglutide with SNAC; cited from earlier work
Source text: Previous approaches to engineering peptide therapeutics include substitution with unnatural amino acids to protect proteolytically vulnerable sites, and lipidation to promote reversible serum protein binding and reduced renal clearance[40]–[42]. […] Ala[8] is replaced with artificial α-methyl-L-alanine to protect the peptide against serum DPP-IV and the peptide is mono-lipidated at Lys[26],[43]. Despite these modifications, semaglutide is still susceptible to rapid proteolytic degradation in th ...

[3] = Pharmacokinetics of oral tablets in dogs; type: in vivo; conditions: oral tablets 20 mg/dog, semaglutide: 300 mg SNAC, uncoated, MEDI7219: 100 mg NaCDC and 200 mg PG, pH 5.5 enteric, arithmetic mean (% CV)
human plasma protein = assay: EScalate equilibrium shift assay, human plasma; type: in vitro ADME; conditions: EScalate equilibrium shift assay
Experimental: as §1

rat plasma protein = assay: EScalate equilibrium shift assay, rat plasma; type: in vitro ADME; conditions: EScalate equilibrium shift assay
dog plasma protein = assay: EScalate equilibrium shift assay, dog plasma; type: in vitro ADME
[4] = parameters: method as in PMID 30429357; conditions: oral semaglutide in dogs; cited from earlier work
FaSSIF/pancreatin = assay: Fasted-state simulated intestinal fluid/pancreatin assay; type: in vitro ADME; conditions: FaSSIF/USP pancreatin; analytical RP-HPLC
Experimental: Fresh FaSSIF and USP Pancreatin (FaSSIF/p; Sigma-Aldrich) was prepared according to Galia et al[55]. and used immediately. Peptides were dissolved in pre-warmed FaSSIF before addition of pre-warmed FaSSIF/pancreatin with agitation. Samples were analyzed by analytical RP-HPLC to determine remaining intact peptide by area under the curve.

- mean bioavailability (%F) [1]: 0.08%
- peptide bound to plasma proteins, monkey (monkey plasma protein): over 97%
- AUC0-inf ([3]; n = 9): 1,440 (45.8) ng·h/mL
- F (bioavailability, systemic fraction) ([3]; n = 9): 0.08 (45.8) %
- F (bioavailability, systemic fraction) ([3]; n = 9, listed as semaglutide): 0.08%
- t½ ([3]; plasma, LC/MS, n = 9): 60.5 (13.6) hours
- peptide bound to plasma proteins, human (human plasma protein): over 97%
- peptide bound to plasma proteins, rat (rat plasma protein): over 97%
- peptide bound to plasma proteins, dog (dog plasma protein; EScalate equilibrium shift assay): over 97%
- time to complete degradation in FaSSIF/pancreatin (FaSSIF/pancreatin): less than 20 min
Compound: CC[C@H](C)[C@H](NC(=O)[C@H](Cc1ccccc1)NC(=O)[C@H](CCC(=O)O)NC(=O)[C@H](CCCCNC(=O)COCCOCCNC(=O)COCCOCCNC(=O)CC[C@H](NC(=O)CCCCCCCCCCCCCCCCC(=O)O)C(=O)O)NC(=O)[C@H](C)NC(=O)[C@H](C)NC(=O)[C@H](CCC(N)=O)NC(=O)CNC(=O)[C@H](CCC(=O)O)NC(=O)[C@H](CC(C)C)NC(=O)[C@H](Cc1ccc(O)cc1)NC(=O)[C@H](CO)NC(=O)[C@H](CO)NC(=O)[C@@H](NC(=O)[C@H](CC(=O)O)NC(=O)[C@H](CO)NC(=O)[C@@H](NC(=O)[C@H](Cc1ccccc1)NC(=O)[C@@H](NC(=O)CNC(=O)[C@H](CCC(=O)O)NC(=O)C(C)(C)NC(=O)[C@@H](N)Cc1cnc[nH]1)[C@@H](C)O)[C@@H](C)O)C(C)C)C(=O)N[C@@H](C)C(=O)N[C@@H](Cc1c[nH]c2ccccc12)C(=O)N[C@@H](CC(C)C)C(=O)N[C@H](C(=O)N[C@@H](CCCNC(=N)N)C(=O)NCC(=O)N[C@@H](CCCNC(=N)N)C(=O)NCC(=O)O)C(C)C [Semaglutide, semaglutide, reference compound]
- bioavailability of oral formulation with SNAC [2]: 0.4–1%
- Fraction unbound peptide (%), dog (dog plasma protein; EScalate equilibrium shift, five dilutions of plasma in PBS, 1 h at room temperature, HPLC-QTOF MS): 0.37%
- published bioavailability (%F) in dogs [4]: 1.22%

Source: PMC8602401 (Scientific Reports, 2021)
